Data reported in paper PMC10743537 (2023).

System: nicked decamer duplex 3 (DNA, duplex, PEG(6) tether between positions 5 and 6 (C10/G11 in paper numbering) and between positions 15 and 16 (C20/G1); nick between T5 (3' end, position 20) and G6 (5' end, position 1)) GTCGCGCGACAACGCGCGTT
Assay: NMR diffusion (DOSY)
Details: 25 mM NaCl, 25 mM K3PO4; D2O buffer, pH 6.0, 10 °C; 0.60 mM each; 1:1 model assumed, self-association neglected

Row | Ka [mM⁻¹] | SMILES
1 | 150 | CCc1c2c(nc3ccc(O)cc13)-c1cc3c(c(=O)n1[C@@H]2CN1CCCC1)COC(=O)[C@]3(O)CC
2 | 76 | CCc1c2c(nc3ccc(O)cc13)-c1cc3c(c(=O)n1[C@H]2CN1CCCC1)COC(=O)[C@]3(O)CC
